Measurements taken from article PMC3752380 (Nature chemical biology, 2013).

Experiments:
MeaB = target: T1, MeaB (Methylorubrum extorquens, UniProt C5AP93); test: isothermal titration calorimetry; assay type: binding
T1 sequence (C5AP93 1-329): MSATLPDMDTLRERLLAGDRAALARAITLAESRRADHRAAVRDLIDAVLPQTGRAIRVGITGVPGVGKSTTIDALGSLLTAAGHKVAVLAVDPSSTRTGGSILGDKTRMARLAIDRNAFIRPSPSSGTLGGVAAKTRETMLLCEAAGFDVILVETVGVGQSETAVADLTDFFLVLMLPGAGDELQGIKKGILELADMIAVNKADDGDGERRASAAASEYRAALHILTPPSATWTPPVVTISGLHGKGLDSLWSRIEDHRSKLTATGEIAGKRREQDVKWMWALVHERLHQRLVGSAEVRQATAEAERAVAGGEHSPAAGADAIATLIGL

crystal structure = target: the molecule itself; test: crystal structure

`Nc1nc2c(ncn2[C@@H]2O[C@H](COP(=O)(O)OP(=O)(O)O)[C@@H](O)[C@H]2O)c(=O)[nH]1` [GDP] was tested, and the Kd (MeaB) was 1400 ± 100 nM.

`Nc1nc2c(ncn2[C@@H]2O[C@H](COP(=O)(O)OP(=O)(O)NP(=O)(O)O)[C@@H](O)[C@H]2O)c(=O)[nH]1` [GMPPNP] showed a Kd (MeaB) of 900 ± 200 nM.

B1: MeaB (Methylobacterium extorquens AM1), wild type (natural protein)
chain: T1 sequence (C5AP93 1-329)
B1: binds (crystal structure).
